Data published in the supplement of paper PMC11451515.

System: P12-Ichikawa
Assay: cell viability relative to DMSO control; higher = less cytotoxic
Conditions: 48 h
Summary of the method: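 Three leukemia lines were tested: NOMO1 and SEM at 500 cells/well and P12-Ichikawa at 1000 cells/well. Each was adapted for at least four passages in each medium and seeded in 5 μl in 1536-well plates, and library compounds in DMSO were pin-dosed from 47 μM to 0.79 nM in 11 threefold steps. After 48 h at 37°C, CellTiter-Glo One luminescence was read. Viability is a percentage relative to DMSO wells on each plate, with cell-free wells as background.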

[1] = HPLM + 10% dialyzed FBS, 0.000781 µM
[2] = HPLM + 10% dialyzed FBS, 0.00234 µM
[3] = HPLM + 10% dialyzed FBS, 0.00702 µM
[4] = HPLM + 10% dialyzed FBS, 0.0211 µM
[5] = HPLM + 10% dialyzed FBS, 0.0632 µM
[6] = HPLM + 10% dialyzed FBS, 0.19 µM
[7] = HPLM + 10% dialyzed FBS, 0.569 µM
[8] = HPLM + 10% dialyzed FBS, 1.71 µM
[9] = HPLM + 10% dialyzed FBS, 5.12 µM
[10] = HPLM + 10% dialyzed FBS, 15.4 µM
[11] = HPLM + 10% dialyzed FBS, 46.1 µM
[12] = RPMI 5 mM glucose + 10% FBS, 0.000781 µM
[13] = RPMI 5 mM glucose + 10% FBS, 0.00234 µM
[14] = RPMI 5 mM glucose + 10% FBS, 0.00702 µM
[15] = RPMI 5 mM glucose + 10% FBS, 0.0211 µM
[16] = RPMI 5 mM glucose + 10% FBS, 0.0632 µM
[17] = RPMI 5 mM glucose + 10% FBS, 0.19 µM
[18] = RPMI 5 mM glucose + 10% FBS, 0.569 µM
[19] = RPMI 5 mM glucose + 10% FBS, 1.71 µM
[20] = RPMI 5 mM glucose + 10% FBS, 5.12 µM
[21] = RPMI 5 mM glucose + 10% FBS, 15.4 µM
[22] = RPMI 5 mM glucose + 10% FBS, 46.1 µM
[23] = RPMI 5 mM glucose + 10% dialyzed FBS, 0.000781 µM
[24] = RPMI 5 mM glucose + 10% dialyzed FBS, 0.00234 µM
[25] = RPMI 5 mM glucose + 10% dialyzed FBS, 0.00702 µM
[26] = RPMI 5 mM glucose + 10% dialyzed FBS, 0.0211 µM
[27] = RPMI 5 mM glucose + 10% dialyzed FBS, 0.0632 µM
[28] = RPMI 5 mM glucose + 10% dialyzed FBS, 0.19 µM
[29] = RPMI 5 mM glucose + 10% dialyzed FBS, 0.569 µM
[30] = RPMI 5 mM glucose + 10% dialyzed FBS, 1.71 µM
[31] = RPMI 5 mM glucose + 10% dialyzed FBS, 5.12 µM
[32] = RPMI 5 mM glucose + 10% dialyzed FBS, 15.4 µM
[33] = RPMI 5 mM glucose + 10% dialyzed FBS, 46.1 µM

Structure (SMILES)	cell viability [1]	cell viability [2]	cell viability [3]	cell viability [4]	cell viability [5]	cell viability [6]	cell viability [7]	cell viability [8]	cell viability [9]	cell viability [10]	cell viability [11]	cell viability [12]	cell viability [13]	cell viability [14]	cell viability [15]	cell viability [16]	cell viability [17]	cell viability [18]	cell viability [19]	cell viability [20]	cell viability [21]	cell viability [22]	cell viability [23]	cell viability [24]	cell viability [25]	cell viability [26]	cell viability [27]	cell viability [28]	cell viability [29]	cell viability [30]	cell viability [31]	cell viability [32]	cell viability [33]
C\C1=C(\C=C(\C#N)C(=O)N1)C2=CC=NC=C2	104%	104%	102%	102%	105%	106%	107%	115%	109%	109%	13.8%	110%	114%	112%	118%	118%	107%	112%	118%	112%	121%	18.4%	94.6%	105%	103%	98.9%	110%	107%	109%	110%	111%	108%	27.9%
O=C(Nc1ccc(F)c(C(F)(F)F)c1)Nc1nnc(-c2ccncc2)s1	125%	121%	119%	115%	129%	112%	120%	115%	119%	111%	100%	113%	127%	125%	109%	112%	114%	114%	118%	113%	111%	99.5%	115%	121%	129%	113%	123%	120%	127%	115%	114%	106%	113%
Cc1[nH]c2ccccc2c1CCNCc1ccc(/C=C/C(=O)NO)cc1	109%	106%	111%	120%	121%	103%	63.1%	7.05%	6.95%	7.08%	7.23%	106%	120%	108%	107%	128%	109%	48.2%	6.65%	6.49%	8.3%	6.44%	114%	109%	117%	111%	122%	113%	74.4%	6.85%	6.73%	6.95%	7.21%
C[C@]1(c2nc3c(C(N)=O)cccc3[nH]2)CCCN1	78.7%	83.9%	79.3%	88.8%	82.2%	87.2%	88.4%	83.2%	81.3%	89.5%	72.4%	70.9%	78.2%	74.9%	82.6%	82.9%	72.9%	77.7%	72.4%	83.3%	80.4%	5.38%	78.1%	74.3%	74.3%	81.4%	83.5%	76.9%	79%	81.6%	72.8%	82.1%	2.96%
COc1ccc(C2CNC(=O)C2)cc1OC1CCCC1 (stereo not given)	88.6%	100%	102%	99%	109%	105%	107%	108%	105%	99%	102%	89%	106%	91.7%	99%	101%	96.7%	105%	103%	98.4%	102%	93%	84.8%	97.6%	89.7%	103%	95.6%	97.2%	92.4%	106%	106%	109%	99%
NC/1=N/C2=C([NH]C=N2)C(=S)N1	113%	122%	116%	123%	123%	121%	120%	119%	98.2%	94.2%	28.9%	119%	120%	124%	116%	131%	130%	116%	119%	96%	88.1%	21.2%	105%	117%	124%	122%	125%	112%	118%	110%	79%	59.7%	11.1%
CC(C)=CC[C@@H](O)C/1=C/C(=O)C2=C(O)C=CC(=C2C1=O)O	90.8%	107%	111%	108%	109%	109%	118%	111%	104%	17.1%	8.56%	93.6%	113%	114%	120%	120%	114%	120%	106%	108%	22.9%	8.56%	92.7%	106%	108%	108%	113%	107%	118%	117%	113%	55.2%	21%
CCOC(=O)\C1=C(/C)N\C2=C(C1C3=CC=C(C=C3)C4=CC=CC=C4)\C(=O)CC(C)(C)C2 (stereo not given)	119%	112%	123%	110%	119%	110%	109%	107%	108%	108%	103%	108%	104%	117%	117%	115%	99.8%	109%	103%	102%	95.3%	113%	112%	118%	116%	114%	111%	101%	104%	101%	107%	98.9%	95.3%
Cc1ccc([S+](=O)([O-])N[C@@H](Cc2ccccc2)C(=O)CCl)cc1	95%	106%	101%	101%	105%	107%	105%	106%	104%	94.4%	46.4%	90.8%	92.4%	95.7%	104%	113%	107%	88.7%	105%	109%	96.2%	36%	93.9%	92.6%	97.2%	102%	95.1%	91.3%	93.2%	94.7%	106%	105%	36.9%
C[C@@H]\1CC(=O)N\N=C1C2=CC=C(NN=C(C#N)C#N)C=C2	91.5%	92.9%	94.3%	94.4%	95.7%	92.8%	93.5%	87.5%	91.3%	86.3%	29.4%	88.1%	93.2%	92.2%	89.5%	93.9%	92.4%	96.7%	91.1%	93.4%	81.1%	15.6%	81.2%	85.7%	88.2%	92.3%	92.3%	90.9%	91.3%	80.1%	83.7%	72.9%	12.8%
CC(N)C12CC3CC(CC(C3)C1)C2 (stereo not given)	105%	108%	111%	117%	124%	109%	111%	114%	110%	99.1%	8.72%	103%	113%	101%	–	123%	118%	112%	112%	111%	117%	13.2%	105%	106%	115%	101%	112%	110%	108%	125%	108%	105%	18.8%
N#Cc1c(NC(=O)c2cccc3ccccc23)sc2c1CCCC2	121%	122%	126%	123%	136%	132%	82.4%	21.6%	18.2%	28.2%	27.4%	–	–	–	–	–	–	–	–	–	–	–	–	–	–	–	–	–	–	–	–	–	–
Cc1c(NC(=O)OC[C@@H]2COCCN2)cn2ncnc(Nc3ccc4c(cnn4Cc4cccc(F)c4)c3)c12	80%	83.9%	91.5%	90%	94.8%	96.5%	99.8%	94.3%	86.8%	87.8%	50.6%	83%	84.4%	90.8%	87.9%	92.9%	85.8%	86%	92.2%	76.6%	81.3%	48.3%	83.4%	84.4%	88.9%	97.3%	100%	88.1%	89.2%	92.9%	91.3%	82.8%	40.4%
C[S+](=O)([O-])N1CCc2c(-c3cnc(N)nc3)nc(N3CCOCC3)nc21	110%	115%	110%	120%	111%	119%	115%	93.6%	104%	107%	98.5%	105%	97.8%	114%	106%	102%	108%	103%	73%	84.8%	79.6%	71.8%	98.2%	116%	110%	119%	112%	115%	107%	85.6%	103%	85.4%	78.5%
O=C(O[C@H]1C[C@H]2CC[C@@H](C1)[N+]21CCCC1)C(O)(c1ccccc1)c1ccccc1.[Cl-]	104%	104%	112%	106%	117%	105%	110%	116%	107%	116%	110%	107%	104%	113%	116%	120%	127%	127%	106%	113%	115%	115%	99.5%	99.9%	105%	106%	117%	110%	104%	113%	107%	103%	103%
CCC(C)(C)c1ccc(CC(C)CN2C[C@@H](C)O[C@@H](C)C2)cc1 (stereo not given in full)	81.2%	81.5%	82.8%	91.5%	97.3%	84.6%	91.9%	94.9%	89%	87.8%	91.6%	88.9%	81.4%	88.1%	87.8%	89.1%	82.3%	93.9%	85.6%	90.7%	86.2%	88%	72%	76.7%	78.3%	79.6%	81.8%	80.6%	84%	81.8%	85.5%	76.3%	75.8%
